Measurements published in patent publication US20070128179A1 (priority 2005, published 2007).
In brackets after ≈: the same amount, converted by molar mass. Where two headings read alike, the source gives them in different places. No end group written: not given here.

How the values were obtained:
[1] = test system: B. pseudomallei (strain KHW); settings: 24 h
Staphylococcus aureus = format: cell-based
Proteus vulgaris = format: cell-based
Proteus mirabilis = format: cell-based
Escherichia coli = format: cell-based
Pseudomonas aeruginosa = format: cell-based
Enterobacter aerogenes = format: cell-based
23 tested strains = settings: cited from earlier work
Burkholderia cepacia = settings: 50 μg/mL; cited from earlier work
[2] = test system: THP-1 cells (Human macrophage)
[3] = test system: B. pseudomallei (strain KHW); assay: microbe, parasite or virus in culture; settings: Burkholderia pseudomallei, 24 h, read-out: MIC (breaking point)
[4] = test system: B. pseudomallei (strain TES); assay: microbe, parasite or virus in culture; format: cell-based, Burkholderia pseudomallei; settings: 24 h; for MIC: Burkholderia pseudomallei, read-out: MIC (breaking point)
[5] = test system: severe meloidosis patients; settings: human, in vivo; cited from earlier work
THP-1 cells = format: cell-based, Human

CC[C@H](C)[C@H](NC(=O)CN)C(=O)NCC(=O)N[C@@H](C)C(=O)N[C@H](C(=O)N[C@@H](CC(C)C)C(=O)N[C@@H](CCCCN)C(=O)N[C@H](C(=O)N[C@@H](CC(C)C)C(=O)N[C@H](C(=O)N[C@H](C(=O)NCC(=O)N[C@@H](CC(C)C)C(=O)N1CCC[C@H]1C(=O)N[C@@H](C)C(=O)N[C@@H](CC(C)C)C(=O)N[C@H](C(=O)N[C@@H](CO)C(=O)N[C@@H](Cc1c[nH]c2ccccc12)C(=O)N[C@H](C(=O)N[C@@H](CCCCN)C(=O)N[C@@H](CCCNC(=N)N)C(=O)N[C@@H](CCCCN)C(=O)N[C@@H](CCCNC(=N)N)C(=O)N[C@@H](CCC(N)=O)C(=O)N[C@@H](CCC(N)=O)C(N)=O)[C@@H](C)CC)[C@@H](C)CC)[C@@H](C)O)[C@@H](C)O)C(C)C)C(C)C [melittin]
MIC (breaking point) [1]: 250 µg/mL (≈ 87.8 µM)

[H]/N=C(/N)N[C@H]1[C@H](O)[C@@H](O)[C@H](O[C@@H]2O[C@@H](C)[C@](O)(C=O)[C@H]2O[C@@H]2O[C@@H](CO)[C@H](O)[C@@H](O)[C@@H]2NC)[C@@H](N/C(N)=N\[H])[C@@H]1O [Streptomycin]
Size of inhibition zone, Sa (+) (Staphylococcus aureus): 30.3 ± 0.77 mm
Size of inhibition zone, Pv (−) (Proteus vulgaris): 18.2 ± 0.83 mm
Size of inhibition zone, Pm (−) (Proteus mirabilis): 27.8 ± 1.09 mm
Size of inhibition zone, Ec (−) (Escherichia coli): 29.4 ± 0.89 mm
Size of inhibition zone, Pa (−) (Pseudomonas aeruginosa): 16.5 ± 0.50 mm
Size of inhibition zone, Ea (−) (Enterobacter aerogenes): 15.7 ± 0.44 mm

hBD-3 (GIINTLQKYYCRVRGGRCAVLSCLPKEEQIGKCSTRGRKCCRRKK; ends and bridges not checked; cysteine pairing not given here; UniProt P81534 23-67, looked up)
MBCs (23 tested strains): > 100 µg/mL
effect (Burkholderia cepacia): did not show any effect

Triton X-100
cell death [2]: 90%
hemolytic activity (human red blood cells): 100%

Penicillin
Size of inhibition zone, Sa (+) (Staphylococcus aureus): 17.4 ± 0.89 mm
Size of inhibition zone, Pv (−) (Proteus vulgaris): 16.7 ± 0.98 mm
Size of inhibition zone, Pm (−) (Proteus mirabilis): 27.8 ± 1.10 mm
Size of inhibition zone, Ec (−) (Escherichia coli): 15.2 ± 0.84 mm
Size of inhibition zone, Pa (−) (Pseudomonas aeruginosa): 16.6 ± 0.89 mm
Size of inhibition zone, Ea (−) (Enterobacter aerogenes): 18.3 ± 0.85 mm

O=C(N[C@H](CO)[C@H](O)c1ccc([N+](=O)[O-])cc1)C(Cl)Cl [Chloramphenicol]
Size of inhibition zone, Sa (+) (Staphylococcus aureus): 35.1 ± 1.26 mm
Size of inhibition zone, Pv (−) (Proteus vulgaris): 24.6 ± 0.86 mm
MIC [3]: 125 µg/mL (≈ 387 µM)
optical density (560 nm) of bacterial growth, strain TES ([4]; 0.03125 mg/mL): 0.37
percentage in parentheses (susceptibility), strain TES ([4]; 0.03125 mg/mL): (38%)
optical density (560 nm) of bacterial growth, strain TES ([4]; 0.0625 mg/mL): 0.34
percentage in parentheses (susceptibility), strain TES ([4]; 0.0625 mg/mL): (41%)
optical density (560 nm) of bacterial growth, strain TES ([4]; 0.125 mg/mL): 0.07
optical density (560 nm) of bacterial growth, strain TES ([4]; 0.25 mg/mL): 0.04
percentage in parentheses (susceptibility), strain TES ([4]; 0.25 mg/mL): (73%)
optical density (560 nm) of bacterial growth, strain TES ([4]; 0.5 mg/mL): 0.026
percentage in parentheses (susceptibility), strain TES ([4]; 0.5 mg/mL): (74%)
MIC [4]: 125 µg/mL (≈ 387 µM)
Size of inhibition zone, Pm (−) (Proteus mirabilis): 33 ± 2.34 mm
Size of inhibition zone, Ec (−) (Escherichia coli): 31.8 ± 1.64 mm
Size of inhibition zone, Pa (−) (Pseudomonas aeruginosa): 25 ± 0.70 mm
Size of inhibition zone, Ea (−) (Enterobacter aerogenes): 27.8 ± 1.09 mm
optical density (560 nm) of bacterial growth, strain KHW ([1]; 0.03125 mg/mL): 0.51
percentage in parentheses (susceptibility), strain KHW ([1]; 0.03125 mg/mL): (1%)
optical density (560 nm) of bacterial growth, strain KHW ([1]; 0.0625 mg/mL): 0.42
percentage in parentheses (susceptibility), strain KHW ([1]; 0.0625 mg/mL): (10%)
optical density (560 nm) of bacterial growth, strain KHW ([1]; 0.125 mg/mL): 0.07
percentage in parentheses (susceptibility), strain KHW ([1]; 0.125 mg/mL): (60%)
optical density (560 nm) of bacterial growth, strain KHW ([1]; 0.25 mg/mL): 0.03
percentage in parentheses (susceptibility), strain KHW ([1]; 0.25 mg/mL): (64%)
optical density (560 nm) of bacterial growth, strain KHW ([1]; 0.5 mg/mL): 0.01
percentage in parentheses (susceptibility), strain KHW ([1]; 0.5 mg/mL): (68%)
mortality [5]: 74%

CC(C)(O/N=C(\C(=O)N[C@@H]1C(=O)N2C(C(=O)[O-])=C(C[n+]3ccccc3)CS[C@H]12)c1csc(N)n1)C(=O)O [Ceftazidime]
gene expression (THP-1 cells): majority of the genes were up regulated
MIC [3]: 125 µg/mL (≈ 229 µM)
optical density (560 nm) of bacterial growth, strain TES ([4]; 0.03125 mg/mL): 0.49
percentage in parentheses (susceptibility), strain TES ([4]; 0.03125 mg/mL): (33%)
optical density (560 nm) of bacterial growth, strain TES ([4]; 0.0625 mg/mL): 0.35
percentage in parentheses (susceptibility), strain TES ([4]; 0.0625 mg/mL): (47%)
optical density (560 nm) of bacterial growth, strain TES ([4]; 0.125 mg/mL): 0.09
optical density (560 nm) of bacterial growth, strain TES ([4]; 0.25 mg/mL): 0.03
percentage in parentheses (susceptibility), strain TES ([4]; 0.25 mg/mL): (86%)
optical density (560 nm) of bacterial growth, strain TES ([4]; 0.5 mg/mL): 0.01
percentage in parentheses (susceptibility), strain TES ([4]; 0.5 mg/mL): (88%)
MIC [4]: 125 µg/mL (≈ 229 µM)
optical density (560 nm) of bacterial growth, strain KHW ([1]; 0.03125 mg/mL): 0.44
percentage in parentheses (susceptibility), strain KHW ([1]; 0.03125 mg/mL): (22%)
optical density (560 nm) of bacterial growth, strain KHW ([1]; 0.0625 mg/mL): 0.24
percentage in parentheses (susceptibility), strain KHW ([1]; 0.0625 mg/mL): (24%)
optical density (560 nm) of bacterial growth, strain KHW ([1]; 0.125 mg/mL): 0.04
percentage in parentheses (susceptibility), strain KHW ([1]; 0.125 mg/mL): (62%)
optical density (560 nm) of bacterial growth, strain KHW ([1]; 0.25 mg/mL): 0.05
percentage in parentheses (susceptibility), strain KHW ([1]; 0.25 mg/mL): (61%)
optical density (560 nm) of bacterial growth, strain KHW ([1]; 0.5 mg/mL): 0.08
percentage in parentheses (susceptibility), strain KHW ([1]; 0.5 mg/mL): (58%)
mortality [5]: 37%
